# Laboratory results taken from the OPERA property sets (Mansouri et al. 2018).
# Conditions: 25 °C
row,Structure (SMILES),solubility [mM]
1,c1ccc(NNc2ccccc2)cc1,1.2
2,COC(=O)c1ccc(C(=O)OC)cc1,0.0978
3,Brc1cccc(Br)c1Br,0.00912
4,Nc1cccc(C(F)(F)F)c1,33.9
5,Brc1ccc2ccccc2c1,0.0398
6,CCNc1ccccc1,19.9
7,Cc1cc(O)ccc1Cl,26.9

# The next lines start with the values.
row,solubility [mM],Structure (SMILES)
1,0.754,CCCCCCCl
2,6490,CC(O)CNCC(C)O (centres undefined)
3,2.14,CCCOC(=O)c1ccccc1
4,43.6,CCCCC(=O)OC
5,579,CCCNCCC
6,3.09,CCC(C)(C)Cl
7,1.85,CCCCCCl
